ChEMBL document CHEMBL1154010, “Aziridine alkaloids as potential therapeutic agents” (Eur J Med Chem, 2009)
Converted amounts (≈) assume the structure as drawn.

Columns and labels:
L1210 = assay: Cytotoxicity against mouse L1210 cells; assay type: functional, cell-based
HL-60 = assay: Cytotoxicity against human HL60 cells; assay type: functional, cell-based
L5178Y = assay: Cytotoxicity against mouse L5178Y cells; assay type: functional, cell-based
Mus musculus = assay: Toxicity in ip dosed ddY mouse bearing mouse S180 cells; assay type: organism-based, CCRF S-180; details: in vivo
CCRF S-180 [1] = assay: Antitumor activity against mouse S180 cells implanted in ip dosed ddY mouse assessed as tumor volume after 7 days; assay type: functional
CCRF S-180 [2] = assay: Antitumor activity against mouse S180 cells xenografted in rat; assay type: functional
[3] = Antitumor activity against mouse EAC cells xenografted in rat; assay type: functional, Ehrlich
[4] = system: Mycolicibacterium smegmatis; assay: Antimicrobial activity against streptothricin-resistant Mycobacterium smegmatis ATCC 607; assay type: functional
[5] = system: Mycolicibacterium smegmatis; assay: Antimicrobial activity against streptomycin-resistant Mycobacterium smegmatis ATCC 607; assay type: functional
Bacillus anthracis = assay: Antimicrobial activity against Bacillus anthracis; assay type: functional
Bacillus cereus = assay: Antimicrobial activity against Bacillus cereus ATCC 10702; assay type: functional
Bacillus subtilis [6] = assay: Antimicrobial activity against Bacillus subtilis NRRL B-558; assay type: functional
Bacillus subtilis [7] = assay: Antimicrobial activity against Bacillus subtilis PCI 219; assay type: functional
Corynebacterium bovis = assay: Antimicrobial activity against Corynebacterium bovis 1810; assay type: functional
Escherichia coli [8] = assay: Antimicrobial activity against Escherichia coli K-12; assay type: functional
Escherichia coli [9] = assay: Antimicrobial activity against Escherichia coli K-12 MLI629; assay type: functional
Escherichia coli [10] = assay: Antimicrobial activity against Escherichia coli BEM11; assay type: functional
Escherichia coli [11] = assay: Antimicrobial activity against Escherichia coli BE1126; assay type: functional
Escherichia coli [12] = assay: Antimicrobial activity against Escherichia coli BE1186; assay type: functional
Klebsiella pneumoniae = assay: Antimicrobial activity against Klebsiella pneumoniae PCI602; assay type: functional
Proteus vulgaris = assay: Antimicrobial activity against Proteus vulgaris OX19; assay type: functional
Proteus mirabilis = assay: Antimicrobial activity against Proteus mirabilis IFM OM-9; assay type: functional
Providencia rettgeri [13] = assay: Antimicrobial activity against Providencia rettgeri GN311; assay type: functional
Providencia rettgeri [14] = assay: Antimicrobial activity against Providencia rettgeri GN466; assay type: functional
Pseudomonas aeruginosa [15] = assay: Antimicrobial activity against Pseudomonas aeruginosa A3; assay type: functional
Pseudomonas aeruginosa [16] = assay: Antimicrobial activity against Pseudomonas aeruginosa GN315; assay type: functional
Staphylococcus aureus [17] = assay: Antimicrobial activity against Staphylococcus aureus FDA209P; assay type: functional
Staphylococcus aureus [18] = assay: Antimicrobial activity against Staphylococcus aureus Smith; assay type: functional
Staphylococcus aureus [19] = assay: Antimicrobial activity against methicillin-resistant Staphylococcus aureus isolate 5; assay type: functional
Staphylococcus aureus [20] = assay: Antimicrobial activity against methicillin-resistant Staphylococcus aureus isolate 17; assay type: functional
Micrococcus luteus [21] = assay: Antimicrobial activity against Micrococcus luteus IFO 3333; assay type: functional
Micrococcus luteus [22] = assay: Antimicrobial activity against Micrococcus luteus PCI 1001; assay type: functional
[23] = system: Salmonella enterica subsp. enterica; assay: Antimicrobial activity against Salmonella typhi T-63; assay type: functional, Salmonella enterica subsp. enterica serovar Typhi
[24] = system: Salmonella enterica subsp. enterica; assay: Antimicrobial activity against Salmonella enteritidis 1891; assay type: functional, Salmonella enterica subsp. enterica serovar Enteritidis
Shigella dysenteriae = assay: Antimicrobial activity against Shigella dysenteriae JS1 1910; assay type: functional
Shigella flexneri = assay: Antimicrobial activity against Shigella flexneri 4bJS11811; assay type: functional
[25] = system: Salmonella enterica subsp. enterica; assay: Antimicrobial activity against Salmonella typhi JS11746; assay type: functional, Salmonella enterica subsp. enterica serovar Typhi
Staphylococcus aureus [26] = assay: Antimicrobial activity against Staphylococcus aureus MS9610; assay type: functional
Micrococcus luteus [27] = assay: Antimicrobial activity against Micrococcus luteus FDA16; assay type: functional
Escherichia coli [28] = assay: Antimicrobial activity against Escherichia coli NIHJ; assay type: functional
[29] = system: Mycolicibacterium smegmatis; assay: Antimicrobial activity against Mycobacterium smegmatis ATCC 607; assay type: functional
Mycolicibacterium vaccae = assay: Antimicrobial activity against Mycobacterium vaccae ATCC 15483; assay type: functional
[30] = system: Mycolicibacterium smegmatis; assay: Antimicrobial activity against rifamycin-resistant Mycobacterium smegmatis ATCC 607; assay type: functional
[31] = system: Mycolicibacterium smegmatis; assay: Antimicrobial activity against paromomycin-resistant Mycobacterium smegmatis ATCC 607; assay type: functional
[32] = system: Mycolicibacterium smegmatis; assay: Antimicrobial activity against capreomycin-resistant Mycobacterium smegmatis ATCC 607; assay type: functional
[33] = molecular target: Fumarate hydratase, mitochondrial (Sus scrofa, UniProt P10173); assay: Inhibition of pig heart fumarase
Chain of Fumarate hydratase, mitochondrial (P10173 whole entry): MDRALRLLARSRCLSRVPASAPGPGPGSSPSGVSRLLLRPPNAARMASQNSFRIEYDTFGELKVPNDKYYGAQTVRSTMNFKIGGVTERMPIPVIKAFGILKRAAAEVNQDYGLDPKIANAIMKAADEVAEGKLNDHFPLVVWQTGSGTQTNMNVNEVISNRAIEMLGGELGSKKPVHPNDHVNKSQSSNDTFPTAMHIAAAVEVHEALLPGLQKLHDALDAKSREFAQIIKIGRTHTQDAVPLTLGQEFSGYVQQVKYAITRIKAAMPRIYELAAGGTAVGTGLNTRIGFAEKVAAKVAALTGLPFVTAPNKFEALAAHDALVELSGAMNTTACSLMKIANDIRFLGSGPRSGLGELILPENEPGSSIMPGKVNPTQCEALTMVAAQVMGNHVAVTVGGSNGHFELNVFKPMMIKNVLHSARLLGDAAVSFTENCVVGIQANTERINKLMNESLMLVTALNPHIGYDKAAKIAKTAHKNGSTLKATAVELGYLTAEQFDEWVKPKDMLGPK

Aspartase = Aspartase (Escherichia coli, UniProt Q59388); assay: Inhibition of Escherichia coli aspartase
Chain of Aspartase (Q59388 whole entry): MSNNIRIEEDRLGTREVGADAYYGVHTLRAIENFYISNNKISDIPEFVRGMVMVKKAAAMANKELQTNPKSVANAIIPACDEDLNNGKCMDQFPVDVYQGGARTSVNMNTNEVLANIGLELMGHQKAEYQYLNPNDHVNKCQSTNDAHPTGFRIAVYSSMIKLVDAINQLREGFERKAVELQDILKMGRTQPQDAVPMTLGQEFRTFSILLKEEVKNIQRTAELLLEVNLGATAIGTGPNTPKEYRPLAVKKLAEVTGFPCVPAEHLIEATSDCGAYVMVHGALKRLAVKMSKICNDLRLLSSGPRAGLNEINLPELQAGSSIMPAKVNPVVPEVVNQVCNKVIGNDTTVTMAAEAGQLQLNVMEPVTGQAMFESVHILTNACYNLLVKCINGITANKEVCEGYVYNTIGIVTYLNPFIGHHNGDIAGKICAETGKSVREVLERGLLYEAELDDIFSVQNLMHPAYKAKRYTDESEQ

[34] = Toxicity in rat bearing M1 cells assessed as mortality at 40% LD50 per day; assay type: organism-based; details: m1, 40 % LD50 per day, read-out: Activity

Question: Which results are given for `NCCCCNCCCN1CC1`?
Answer: IC50 (L1210): 150 nM; IC50 (HL-60): 110 nM

Question: Which IC50 (L5178Y) does the source give for `Nc1nc(=O)c2c(CNC(=O)N3CC3)c[nH]c2[nH]1` here?
Answer: The IC50 was 9 µg/mL (≈ 36.3 µM).

Question: Which LD50 (Mus musculus) does the source give for `COC1=C(C)C(=O)C2=C(C1=O)[C@@H](COC(N)=O)[C@@]1(OC)[C@@H]3[C@H](CN21)N3C` (stereo partly drawn) [N-METHYL-MITOMYCIN A] here?
Answer: The LD50 was 5 µg/mL.

Question: And the ED50 (CCRF S-180 [1])?
Answer: The ED50 was 1.3 µg/mL (≈ 3.58 µM).

Question: With `COC1=C(C)C(=O)C2=C(C1=O)[C@@H](COC(N)=O)[C@@]1(O)[C@H]3N[C@H]3CN21` [9A-DEMETHYLMITOMYCIN A] as the molecule, how does the LD50 (Mus musculus) read?
Answer: Its LD50 is 7.5 µg/mL.

Question: What about the ED50 (CCRF S-180 [1]) of the same molecule?
Answer: Its ED50 is 4.9 µg/mL (≈ 14.6 µM).

Question: Which results are given for `CC1(C)CC(CCC(=O)ONP(=O)(N2CC2)N2CC2)CC(C)(C)N1O`?
Answer: Activity (CCRF S-180 [2]): 93%; Activity [3]: 90%

Question: With `CC1(C)CC(C(=O)ONP(=O)(N2CC2(C)C)N2CC2(C)C)CC(C)(C)N1O` (stereo not drawn) as the molecule, how does the Activity (CCRF S-180 [2]) read?
Answer: Its Activity is 93%.

Question: For `C=C1C2=C(C(=O)C(C)=C(OC)C2=O)N2C[C@H]3[C@H](N3C)[C@]12OC` (stereo partly drawn) [MITOMYCIN G], which LD50 (Mus musculus) is on record?
Answer: The LD50 was 130 µg/mL.

Question: And the ED50 (CCRF S-180 [1])?
Answer: The ED50 was 100 µg/mL (≈ 331 µM).

Question: For `COc1c(O)cc2c(OC)c3c(c(O)c2c1O)C(=O)CC1CC(O)(C2CN2)CC(=O)C31O` (stereo not drawn) [AZICEMICIN B], which MIC [4] is on record?
Answer: Its MIC is 25 µg/mL (≈ 56.1 µM).

Question: What about the MIC [5] of the same molecule?
Answer: The MIC was 6.25 µg/mL (≈ 14 µM).

Question: What about the MIC (Bacillus anthracis) of the same molecule?
Answer: Its MIC is 100 µg/mL (≈ 225 µM).

Question: What about the MIC (Bacillus cereus) of the same molecule?
Answer: Its MIC is 100 µg/mL (≈ 225 µM).

Question: And the MIC (Bacillus subtilis [6])?
Answer: The MIC was 100 µg/mL (≈ 225 µM).

Question: And the MIC (Bacillus subtilis [7])?
Answer: The MIC was 100 µg/mL (≈ 225 µM).

Question: And the MIC (Corynebacterium bovis)?
Answer: The MIC was 6.25 µg/mL (≈ 14 µM).

Question: What about the MIC (Escherichia coli [8]) of the same molecule?
Answer: Its MIC is 100 µg/mL (≈ 225 µM).

Question: What about the MIC (Escherichia coli [9]) of the same molecule?
Answer: The MIC was 100 µg/mL (≈ 225 µM).

Question: What about the MIC (Escherichia coli [10]) of the same molecule?
Answer: Its MIC is 100 µg/mL (≈ 225 µM).

Question: What about the MIC (Escherichia coli [11]) of the same molecule?
Answer: Its MIC is 100 µg/mL (≈ 225 µM).

Question: What about the MIC (Escherichia coli [12]) of the same molecule?
Answer: Its MIC is 100 µg/mL (≈ 225 µM).

Question: And the MIC (Klebsiella pneumoniae)?
Answer: The MIC was 100 µg/mL (≈ 225 µM).

Question: And the MIC (Proteus vulgaris)?
Answer: The MIC was 100 µg/mL (≈ 225 µM).

Question: And the MIC (Proteus mirabilis)?
Answer: Its MIC is 100 µg/mL (≈ 225 µM).

Question: What about the MIC (Providencia rettgeri [13]) of the same molecule?
Answer: Its MIC is 100 µg/mL (≈ 225 µM).

Question: And the MIC (Providencia rettgeri [14])?
Answer: Its MIC is 100 µg/mL (≈ 225 µM).

Question: And the MIC (Pseudomonas aeruginosa [15])?
Answer: Its MIC is greater than 50 µg/mL.

Question: And the MIC (Pseudomonas aeruginosa [16])?
Answer: The MIC was 100 µg/mL (≈ 225 µM).

Question: What about the MIC (Staphylococcus aureus [17]) of the same molecule?
Answer: The MIC was 100 µg/mL (≈ 225 µM).

Question: And the MIC (Staphylococcus aureus [18])?
Answer: The MIC was 100 µg/mL (≈ 225 µM).

Question: And the MIC (Staphylococcus aureus [19])?
Answer: The MIC was 100 µg/mL (≈ 225 µM).

Question: What about the MIC (Staphylococcus aureus [20]) of the same molecule?
Answer: The MIC was 100 µg/mL (≈ 225 µM).

Question: And the MIC (Micrococcus luteus [21])?
Answer: Its MIC is 1.56 µg/mL (≈ 3.5 µM).

Question: And the MIC (Micrococcus luteus [22])?
Answer: Its MIC is 1.56 µg/mL (≈ 3.5 µM).

Question: And the MIC [23]?
Answer: The MIC was 100 µg/mL (≈ 225 µM).

Question: And the MIC [24]?
Answer: Its MIC is greater than 50 µg/mL.

Question: And the MIC (Shigella dysenteriae)?
Answer: The MIC was 25 µg/mL (≈ 56.1 µM).

Question: What about the MIC (Shigella flexneri) of the same molecule?
Answer: Its MIC is 100 µg/mL (≈ 225 µM).

Question: And the MIC [25]?
Answer: The MIC was 100 µg/mL (≈ 225 µM).

Question: What about the MIC (Staphylococcus aureus [26]) of the same molecule?
Answer: The MIC was 100 µg/mL (≈ 225 µM).

Question: And the MIC (Micrococcus luteus [27])?
Answer: Its MIC is 6.25 µg/mL (≈ 14 µM).

Question: What about the MIC (Escherichia coli [28]) of the same molecule?
Answer: The MIC was 25 µg/mL (≈ 56.1 µM).

Question: And the MIC [29]?
Answer: Its MIC is 12.5 µg/mL (≈ 28.1 µM).

Question: And the MIC (Mycolicibacterium vaccae)?
Answer: Its MIC is 6.25 µg/mL (≈ 14 µM).

Question: And the MIC [30]?
Answer: Its MIC is 25 µg/mL (≈ 56.1 µM).

Question: What about the MIC [31] of the same molecule?
Answer: Its MIC is 6.25 µg/mL (≈ 14 µM).

Question: And the MIC [32]?
Answer: Its MIC is 12.5 µg/mL (≈ 28.1 µM).

Question: What does the source list for `O=C(O)[C@H]1N[C@@H]1C(=O)O`?
Answer: Ki [33]: 80 nM; Ki (Aspartase): 55 µM

Question: With `CC1SCCN1P(=O)(N1CC1)N1CC1` (stereo not drawn) [MARCOPHAN] as the molecule, how does the mortality [34] read?
Answer: The mortality was 25%.
